Measurements from PubChem BioAssay (NCI).
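Growth conditions: 96-well plates. Treatment: test compound, 48 hours, 5 concentrations. Analysis: linear interpolation between bracketing concentrations; unreached endpoints set to highest concentration. GI50 = concentration required for 50% inhibition of growth. TGI is the concentration that stops growth completely.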

Experiments:
Assay in all cases: NCI-60 cell line screen, 48 h
[1] = test system: A549 NSCLC
[2] = test system: HCC-2998 colon
[3] = test system: LOX IMVI melanoma
[4] = test system: M14 melanoma
[5] = test system: OVCAR-8 ovarian
[6] = test system: SK-OV-3 ovarian
[7] = test system: SN12C renal
[8] = test system: UACC-257 melanoma
[9] = test system: HOP-92 NSCLC
[10] = test system: OVCAR-5 ovarian

For `O=C(O)CC(C(=O)O)C1c2ccccc2-c2ccccc21` (stereo not drawn), the TGI [1] was > 100 µM, the TGI [2] was > 100 µM and the TGI [3] was > 100 µM. For the same molecule, the TGI [4] was > 100 µM, the TGI [5] was > 100 µM and the TGI [6] was > 100 µM. The TGI [7] was > 100 µM and the TGI [8] was > 100 µM.

Work on `OC(Cc1ccccc1)(Cc1ccccc1)c1ccccc1` yielded a TGI [1] of 46.3 µM, a TGI [9] of 32.2 µM and a TGI [3] of 37.1 µM. It also gave a TGI [4] of 33.3 µM, a TGI [10] of 38 µM and a TGI [5] of 39.6 µM. For the same molecule, the TGI [7] was 32 µM and the TGI [8] was 36.7 µM.

With `Nc1cc(S(=O)(=O)O)cc2cc(S(=O)(=O)O)c(N=Nc3ccc(-c4ccc(N=Nc5c(S(=O)(=O)O)cc6cc(S(=O)(=O)O)cc(N)c6c5O)cc4)cc3)c(O)c12` the TGI [1] was > 100 µM, the TGI [2] was > 100 µM and the TGI [9] was > 100 µM. The TGI [3] was > 100 µM, the TGI [10] was > 100 µM and the TGI [5] was > 100 µM. For the same molecule, the TGI [6] was > 100 µM, the TGI [7] was > 100 µM and the TGI [8] was > 100 µM.

Work on `O=Nc1ccc(O)c2ncccc12` yielded a TGI [1] of 30.4 µM, a TGI [2] of 31.1 µM and a TGI [9] of 11.9 µM. The TGI [3] was 18.6 µM, the TGI [4] was 20.7 µM and the TGI [10] was 32.5 µM. The TGI [5] was > 34.1 µM, the TGI [6] was 31.3 µM and the TGI [7] was 25.2 µM. The TGI [8] was 19.4 µM.

In the case of `CCN(CC)C(=S)SC(=S)N(CC)CC`, the TGI [1] is reported as > 100 µM, the TGI [2] is reported as > 100 µM and the TGI [9] is reported as > 87.3 µM. The TGI [3] was 58.9 µM, the TGI [4] was > 100 µM and the TGI [10] was > 100 µM. For the same molecule, the TGI [5] was > 100 µM, the TGI [6] was > 100 µM and the TGI [7] was > 100 µM. For the same molecule, the TGI [8] was > 100 µM.

With `c1ccc(-n2cnnc2-c2nsc3ccccc23)cc1` the TGI [1] was > 100 µM, the TGI [2] was > 100 µM and the TGI [9] was > 100 µM. For the same molecule, the TGI [3] was > 100 µM, the TGI [4] was > 100 µM and the TGI [10] was > 100 µM. The TGI [5] was > 100 µM, the TGI [7] was > 100 µM and the TGI [8] was > 100 µM.

In the case of `COc1ccc(-c2nn(-c3ccc(NC(=O)Nc4ccc(Cl)c(Cl)c4)cc3)cc2-c2ccncc2)cc1Cl`, the GI50 [1] is reported as 1.56 µM, the TGI [1] is reported as > 100 µM and the GI50 [2] is reported as 2.78 µM. The TGI [2] was > 100 µM, the GI50 [9] was 1.82 µM and the TGI [9] was 5.72 µM. The GI50 [3] was 2.24 µM, the TGI [3] was 10.4 µM and the GI50 [4] was 1.79 µM. The TGI [4] was 5.04 µM, the GI50 [10] was 2.8 µM and the TGI [10] was > 100 µM. The GI50 [5] was 2.72 µM, the TGI [5] was > 100 µM and the GI50 [7] was 2.6 µM. For the same molecule, the TGI [7] was > 100 µM, the GI50 [8] was 3.14 µM and the TGI [8] was 11.6 µM.

For `CC(C)=CCc1c(O)ccc2c1OC1c3ccc(O)c(CC=C(C)C)c3OCC21` (stereo not drawn), the TGI [1] was 26.5 µM, the TGI [2] was 26 µM and the TGI [9] was > 100 µM. It also gave a TGI [3] of 22.3 µM, a TGI [10] of 27.1 µM and a TGI [5] of 52.6 µM. The TGI [6] was 35.1 µM, the TGI [7] was 30.3 µM and the TGI [8] was 29 µM.

`C[C@H](C(=O)N[C@@H](Cc1ccc(-c2ccccc2)cc1)C(=O)NC1CC(C)(C)N(C)C(C)(C)C1)c1ccc(-c2ccccc2)c(F)c1` was tested, and the GI50 [2] was 1.74 µM, the TGI [2] was 3.42 µM and the GI50 [9] was 1.26 µM. It also gave a TGI [9] of 2.7 µM, a GI50 [4] of 1.74 µM and a TGI [4] of 3.39 µM. It also gave a GI50 [10] of 1.46 µM, a TGI [10] of 3 µM and a GI50 [7] of 1.31 µM. The TGI [7] was 2.77 µM, the GI50 [8] was 2.12 µM and the TGI [8] was 3.8 µM.

Work on `COc1cc(C(C)(C)C)cc(OC)c1C(O)(c1c(OC)cc(C(C)(C)C)cc1OC)c1c(OC)cc(C(C)(C)C)cc1OC` yielded a GI50 [1] of 0.324 µM, a TGI [1] of 1.23 µM and a GI50 [2] of 0.429 µM. For the same molecule, the TGI [2] was 1.36 µM, the GI50 [3] was 0.357 µM and the TGI [3] was 1.45 µM. For the same molecule, the GI50 [4] was 0.381 µM, the TGI [4] was 1.13 µM and the GI50 [10] was 0.327 µM. The TGI [10] was 1.02 µM, the GI50 [8] was 0.268 µM and the TGI [8] was 0.702 µM.

With `O=[N+]([O-])c1ccc(/C=N\Nc2ccc([N+](=O)[O-])cn2)cc1` the TGI [1] was > 100 µM, the TGI [2] was > 100 µM and the TGI [9] was > 100 µM. For the same molecule, the TGI [4] was > 100 µM, the TGI [10] was > 100 µM and the TGI [5] was > 100 µM. The TGI [6] was > 100 µM, the TGI [7] was > 100 µM and the TGI [8] was > 100 µM.

`N=C(N)c1ccc(-c2ccc(-c3cncc4ccccc34)s2)cc1F` gave a GI50 [4] of 1.8 µM, a TGI [4] of 3.4 µM and a GI50 [10] of 1.6 µM. It also gave a TGI [10] of 3.1 µM, a GI50 [6] of 1.84 µM and a TGI [6] of 3.63 µM. The GI50 [7] was 1.85 µM and the TGI [7] was 3.65 µM.

With `Nc1ccc(OCC(O)N2C(=O)c3ccccc3C2=O)cc1` (stereo not drawn) the TGI [1] was > 100 µM, the TGI [2] was > 100 µM and the TGI [3] was > 100 µM. The TGI [4] was > 100 µM, the TGI [10] was > 100 µM and the TGI [5] was > 100 µM. The TGI [6] was > 100 µM and the TGI [8] was > 100 µM.

For `C/C1=N\NC(=O)c2ccccc2C(=O)N/N=C(\C)c2cccc1n2.O=[N+]([O-])[O-].[Zn+2]`, the TGI [1] was > 100 µM, the TGI [2] was > 100 µM and the TGI [4] was > 100 µM. For the same molecule, the TGI [10] was > 100 µM, the TGI [5] was > 100 µM and the TGI [6] was > 100 µM. The TGI [7] was > 100 µM and the TGI [8] was > 100 µM.
